ChEMBL document CHEMBL1146463, “A pair of new C-21 steroidal glycoside epimers from the roots of Cynanchum paniculatum” (2004)
≈ marks a conversion by molar mass, not a printed value.

Test system: Staphylococcus aureus
Experiment: Antibacterial activity against methicillin-resistant Staphylococcus aureus after 20 hrs
Type: functional

Row | SMILES | MIC [µg/mL]
1 | CC(=O)OCC1=C(C(=O)O)N2C(=O)[C@@H](NC(=O)CSc3ccncc3)[C@H]2SC1 [CEPHAPIRIN] | 10.5 (≈ 24.8 µM)
2 | CO[C@@H]1C[C@H](O[C@H]2CC[C@@]3(C)C(=CC[C@H]4C(=O)O[C@@H]5CO[C@]6(C)O[C@H](O)/C(=C/C[C@@H]43)[C@H]56)C2)O[C@H](C)[C@H]1O [PANICULATUMOSIDE A] | 180 (≈ 345 µM)
3 | CO[C@@H]1C[C@H](O[C@H]2CC[C@@]3(C)C(=CC[C@H]4C(=O)O[C@H]5CO[C@]6(C)O[C@@H](O)/C(=C/C[C@@H]43)[C@H]56)C2)O[C@H](C)[C@H]1O [PANICULATUMOSIDE B] | 149 (≈ 285 µM)
